Laboratory results taken from US10239882B2, “Substituted 5-methyl-[1,2,4]triazolo[1,5-a]pyrimidin-2-amine compounds as PDE2 inhibitors” (DART NEUROSCIENCE (CAYMAN) LTD., priority 2014, dated 2019).

Target: FLAG-tagged PDE2A1 (amino acids 2-941) (Homo sapiens (Human), UniProt O00408)
Test: IMAP TR-FRET PDE2A enzymatic assay
Assay type: biochemical
Conditions: 200 nM FAM-cAMP substrate, 11-point half-log dose-response; for IC50: read-out: PDE2 (PIC50)
Description: An IMAP TR-FRET-based phosphodiesterase assay was developed using the PDE2A isoform. IMAP technology is based on high-affinity binding of phosphate by immobilized metal (MIII) coordination complexes on nanoparticles. The IMAP “binding reagent” recognizes phosphate groups on AMP or GMP generated from cAMP or cGMP in a PDE reaction. Cyclic nucleotides that carry a phosphodiester bond and not a free phosphate are not recognized by the binding reagent. The time resolved fluorescence resonance energy transfer (TR-FRET) is afforded by a Terbium (Tb)-Donor pre-bound to the nanoparticles. FRET occurs when the fluorescent-labeled AMP or GMP product of a PDE reaction binds and comes into close proximity to the Tb-Donor complex. Due to the long lifetime of Tb fluorescence, detection can be run in time-resolved mode to reduce or eliminate interference from auto-fluorescent compounds.
The IMAP TR-FRET PDE2A assay was performed in 1536-well white plates. A total of 250 pg per well of FLAG-tagged PDE2A1 (amino acids 2-941) was dispensed in 2.5 μL IMAP assay buffer consisting of 10 mM Tris pH 7.2, 10 mM MgCl2, 1 mM DTT, and 0.1% fatty acid free BSA. 30 nL of compound was then added from 1 mM stocks in DMSO using a Kalypsys Pintool. Plates were incubated for 5 min at room temperature before dispensing 1.5 μL of 533 nM FAM-cAMP substrate for a final concentration of 200 nM. Following a brief centrifugation, plates were incubated for 30 min at room temperature. The assay was terminated by adding 5 μL IMAP binding reagent Tb complex to each well which was prepared according to manufacturer's recommendations (Molecular Devices). Plates were incubated an additional 90 minutes at room temperature and read on a Viewlux plate reader. All compounds were solvated at a concentration of 10 mM in DMSO and tested in 11-point half-log dose-response. Curve fitting and IC50 values were determined using a standard four parameter fit.

FLAG-tagged PDE2A1 (amino acids 2-941), sequence (O00408 2-941): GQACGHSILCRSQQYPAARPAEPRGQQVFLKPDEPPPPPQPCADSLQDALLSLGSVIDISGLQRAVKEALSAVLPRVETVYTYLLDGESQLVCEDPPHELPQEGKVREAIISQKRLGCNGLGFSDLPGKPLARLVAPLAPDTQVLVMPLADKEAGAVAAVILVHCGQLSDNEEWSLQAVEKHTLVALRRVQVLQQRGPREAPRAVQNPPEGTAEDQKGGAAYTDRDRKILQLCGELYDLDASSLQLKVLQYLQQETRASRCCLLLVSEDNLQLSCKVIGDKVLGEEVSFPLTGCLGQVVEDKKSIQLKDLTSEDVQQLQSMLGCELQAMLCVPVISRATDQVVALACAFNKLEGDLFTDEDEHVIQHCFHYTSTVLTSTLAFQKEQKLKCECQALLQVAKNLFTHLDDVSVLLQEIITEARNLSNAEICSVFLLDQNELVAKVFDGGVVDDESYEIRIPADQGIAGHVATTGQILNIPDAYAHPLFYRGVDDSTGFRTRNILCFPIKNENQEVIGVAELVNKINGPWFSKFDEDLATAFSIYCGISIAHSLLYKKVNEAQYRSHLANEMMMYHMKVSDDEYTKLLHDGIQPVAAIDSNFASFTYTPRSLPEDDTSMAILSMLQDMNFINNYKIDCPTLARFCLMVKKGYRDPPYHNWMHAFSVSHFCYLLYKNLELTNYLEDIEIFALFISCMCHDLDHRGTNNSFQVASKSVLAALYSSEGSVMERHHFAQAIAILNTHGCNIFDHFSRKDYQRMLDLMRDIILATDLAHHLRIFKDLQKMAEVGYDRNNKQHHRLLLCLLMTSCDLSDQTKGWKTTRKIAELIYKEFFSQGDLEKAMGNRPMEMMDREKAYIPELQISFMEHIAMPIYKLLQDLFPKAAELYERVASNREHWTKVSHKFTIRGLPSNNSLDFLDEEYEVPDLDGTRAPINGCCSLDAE

Row | SMILES | IC50 | PDE2 (PIC50)
1 | Cc1cc(C2CC2)n2nc(NCc3cn(-c4ccccc4)nc3C)nc2n1 [Example 63, 7-Cyclopropyl-5-methyl-N-[(3-methyl-1-phenyl-1H-pyrazol-4-yl)methyl]-[1,2,4]triazolo[1,5-a]pyrimidin-2-amine] | 100 to 1000 nM | –
2 | COc1ccc([C@@H](C)Nc2nc3nc(C)cc(C4CCOCC4)n3n2)cc1 [Example 64, N-[(1R)-1-(4-Methoxyphenyl)ethyl]-5-methyl-7-(oxan-4-yl)-[1,2,4]triazolo[1,5-a]pyrimidin-2-amine] | 100 to 1000 nM | –
3 | Cc1cc(C2CCOCC2)n2nc(NCc3cn(CC(F)F)nc3C)nc2n1 [Example 65, N-{[1-(2,2-Difluoroethyl)-3-methyl-1H-pyrazol-4-yl]methyl}-5-methyl-7-(oxan-4-yl)-[1,2,4]triazolo[1,5-a]pyrimidin-2-amine] | 100 to 1000 nM | –
4 | Cc1cc(C2CCOCC2)n2nc(NCc3cn(C(C)C)nc3C)nc2n1 [Example 66, 5-Methyl-N-{[3-methyl-1-(propan-2-yl)-1H-pyrazol-4-yl]methyl}-7-(oxan-4-yl)-[1,2,4]triazolo[1,5-a]pyrimidin-2-amine] | – | >7
5 | Cc1cc(C2CCOCC2)n2nc(NCc3ccc(F)cc3F)nc2n1 [Example 68, N-[(2,4-Difluorophenyl)methyl]-5-methyl-7-(oxan-4-yl)-[1,2,4]triazolo[1,5-a]pyrimidin-2-amine] | 100 to 1000 nM | –
6 | COc1ccc([C@H](C)Nc2nc3nc(C)cc(C4CCOCC4)n3n2)cc1 [Example 69, N-[(1S)-1-(4-Methoxyphenyl)ethyl]-5-methyl-7-(oxan-4-yl)-[1,2,4]triazolo[1,5-a]pyrimidin-2-amine] | 1000 to 10000 nM | –
7 | Cc1cc(C2CCOCC2)n2nc(NCc3c(F)cncc3F)nc2n1 [Example 70, N-[(3,5-Difluoropyridin-4-yl)methyl]-5-methyl-7-(oxan-4-yl)-[1,2,4]triazolo[1,5-a]pyrimidin-2-amine] | 100 to 1000 nM | –
8 | Cc1cc(C2CCC2)n2nc(NCc3cn(-c4ccccc4)nc3C)nc2n1 [Example 71, 7-Cyclobutyl-5-methyl-N-[(3-methyl-1-phenyl-1H-pyrazol-4-yl)methyl]-[1,2,4]triazolo[1,5-a]pyrimidin-2-amine] | 100 to 1000 nM | –
9 | Cc1cc(C2CCOC2)n2nc(NCc3cn(-c4ccccc4)nc3C)nc2n1 (stereo not shown) [Example 72, 5-Methyl-N-[(3-methyl-1-phenyl-1H-pyrazol-4-yl)methyl]-7-(oxolan-3-yl)-[1,2,4]triazolo[1,5-a]pyrimidin-2-amine] | – | >7
10 | Cc1cc(C2CCOCC2)n2nc(NCc3cc(C#N)ccc3F)nc2n1 [Example 73, 4-Fluoro-3-({[5-methyl-7-(oxan-4-yl)-[1,2,4]triazolo[1,5-a]pyrimidin-2-yl]amino}methyl)benzonitrile] | 100 to 1000 nM | –
11 | Cc1cc(C(C)C)n2nc(NCc3cn(-c4ccccc4)nc3C)nc2n1 [Example 74, 5-Methyl-N-[(3-methyl-1-phenyl-H-pyrazol-4-yl)methyl]-7-(propan-2-yl)-[1,2,4]triazolo[1,5-a]pyrimidin-2-amine] | – | >7
12 | COc1ccc(CNc2nc3nc(C)cc(C4(C)CC4)n3n2)cc1 [Example 75, N-[(4-Methoxyphenyl)methyl]-5-methyl-7-(1-methylcyclopropyl)-[1,2,4]triazolo[1,5-a]pyrimidin-2-amine] | 100 to 1000 nM | –
13 | Cc1cc(C2(C)CC2)n2nc(NCc3cn(-c4ccccc4)nc3C)nc2n1 [Example 76, 5-Methyl-N-[(3-methyl-1-phenyl-1H-pyrazol-4-yl)methyl]-7-(1-methylcyclopropyl)-[1,2,4]triazolo[1,5-a]pyrimidin-2-amine] | – | >7
14 | COc1ccc(CNc2nc3nc(C)cc(C(C)(C)OC)n3n2)cc1 [Example 77, N-[(4-Methoxyphenyl)methyl]-7-(2-methoxypropan-2-yl)-5-methyl-[1,2,4]triazolo[1,5-a]pyrimidin-2-amine] | 1000 to 10000 nM | –
15 | Cc1cc(C2CCOCC2)n2nc(NCc3ccc(F)c(Cl)c3F)nc2n1 [Example 78, N-[(3-Chloro-2,4-difluorophenyl)methyl]-5-methyl-7-(oxan-4-yl)-[1,2,4]triazolo[1,5-a]pyrimidin-2-amine] | – | >7
16 | Cc1cc(C2CCOCC2)n2nc(NCc3cc(Cl)c(F)cc3F)nc2n1 [Example 80, N-[(5-Chloro-2,4-difluorophenyl)methyl]-5-methyl-7-(oxan-4-yl)-[1,2,4]triazolo[1,5-a]pyrimidin-2-amine] | – | >7
17 | Cc1cc(C2CCOCC2)n2nc(NCc3cc(F)cc(Br)c3)nc2n1 [Example 81, N-[(3-Bromo-5-fluorophenyl)methyl]-5-methyl-7-(oxan-4-yl)-[1,2,4]triazolo[1,5-a]pyrimidin-2-amine] | – | >7
18 | Cc1cc(C2CCOCC2)n2nc(NCc3cc(-c4ccccc4)nn3C)nc2n1 [Example 82, 5-Methyl-N-[(1-methyl-3-phenyl-1H-pyrazol-5-yl)methyl]-7-(oxan-4-yl)-[1,2,4]triazolo[1,5-a]pyrimidin-2-amine] | – | >7
19 | Cc1cc(C2CCOCC2)n2nc(NCc3cccc(Br)c3F)nc2n1 [Example 83, N-[(3-Bromo-2-fluorophenyl)methyl]-5-methyl-7-(oxan-4-yl)-[1,2,4]triazolo[1,5-a]pyrimidin-2-amine] | – | >7
20 | Cc1cc(C2CCOCC2)n2nc(NCc3cc(F)cc(Cl)c3)nc2n1 [Example 84, N-[(3-Chloro-5-fluorophenyl)methyl]-5-methyl-7-(oxan-4-yl)-[1,2,4]triazolo[1,5-a]pyrimidin-2-amine] | – | >7
21 | Cc1cc(C2CCOCC2)n2nc(NCc3cc(C(F)(F)F)nn3C)nc2n1 [Example 85, 5-Methyl-N-{[1-methyl-3-(trifluoromethyl)-1H-pyrazol-5-yl]methyl}-7-(oxan-4-yl)-[1,2,4]triazolo[1,5-a]pyrimidin-2-amine] | – | >7
22 | Cc1cc(C2CCOCC2)n2nc(NCc3cccc(C#N)c3)nc2n1 [Example 86, 3-({[5-Methyl-7-(oxan-4-yl)-[1,2,4]triazolo[1,5-a]pyrimidin-2-yl]amino}methyl)benzonitrile] | 100 to 1000 nM | –
